Source: US9969719B2, “Substituted 2-hydrogen-pyrazole derivative serving as anticancer drug” (CHIA TAI TIANQING PHARMACEUTICAL GROUP CO., LTD., priority 2015, dated 2018)
Where two headings read alike, the source gives them in different places.

How the values were obtained:
[1] = molecular target: T1, CDK4/cyclin D1 (Homo sapiens, UniProt P11802); assay: CDK4/cyclin D1 Lance Ultra enzyme assay; assay type: biochemical; settings: for inhibitory activities against CDK4 compared with the reference compounds: versus Palbociclib and LY2835219, in words; for IC50: 350 μM ATP, 180 minutes
T1 construct: purchased Life Technologies
Procedure: (§1) The experimental materials included CDK2/cyclin A, CDK4/cyclin D1, CDK6/cyclin D1 (Life Technologies); ULight-labeled polypeptide substrates, i.e., ULight-4E-BP1 and ULight-MBP (PerkinElmer); the europium-labeled antibody against anti-myelin basic protein and europium-labeled rabbit antibody (PerkinElmer); and Envision® Multilabel Plate Reader (PerkinElmer) used for signal detection.
(§2) The compounds to be tested were diluted three times so as to be at ten gradually varied concentrations.
The dilutions of the compounds were dissolved in enzyme buffer, respectively. The components of the buffer included 50 mM hydroxyethylpiperazine ethanesulfonic acid solution (pH 7.5), 1 mM ethylenediaminetetraacetic acid, 10 mM magnesium chloride, 0.01% Brij-35, and 2 mM dithiothreitol. After the reaction started, the OptiPlate 384-well plate was sealed with top heat-sealing film TopSeal-A and incubated at room temperature for 180 minutes. • The Enzyme Reaction System of CDK6/Cyclin D1
(§3) The stop buffer of the enzyme reaction was prepared by dissolving EDTA in a one-fold dilution of the assay buffer. The reaction was terminated at room temperature for 5 minutes. To each of the reaction systems of CDK2/cyclin A, CDK4/cyclin D1 and CDK6/cyclin D1 was added 5 μL assay mixture (provided with antibody the europium-labeled against anti-myelin basic protein and the europium-labeled rabbit antibody, respectively). They were incubated at room temperature for 60 minutes. The reaction signals were detected by the EnVision instrument according to the principle of time-resolved fluorescence resonance energy transfer.

[2] = molecular target: T2, CDK6/cyclin D1 (Homo sapiens, UniProt Q00534); assay: CDK6/cyclin D1 Lance Ultra enzyme assay; assay type: biochemical; settings: for IC50: 250 μM ATP, 180 minutes; for inhibitory activities against CDK6 compared with the reference compounds: versus Palbociclib and LY2835219, in words
T2 construct: purchased Life Technologies
Procedure: as §1, §2
The dilutions of the compounds were dissolved in enzyme buffer, respectively. The components of the buffer included 50 mM hydroxyethylpiperazine ethanesulfonic acid solution (pH 7.5), 1 mM ethylenediaminetetraacetic acid, 10 mM magnesium chloride, 0.01% Brij-35, and 2 mM dithiothreitol. After the reaction started, the OptiPlate 384-well plate was sealed with top heat-sealing film TopSeal-A and incubated at room temperature for 180 minutes.
as §3

[3] = test system: MCF-7 cells; assay: MCF-7 cell proliferation (CellTiter-Glo, 6 days); assay type: cell-based, human; settings: for IC50: Homo sapiens, MCF7, proliferation, 6 days; for MCF-7/MDA-MB-436: ratio of the proliferation IC50 values; for inhibitory activities against the proliferation of MCF-7 cells compared with the reference compounds: versus Palbociclib and LY2835219, in words
Procedure: EnVision® Multilabel Plate Reader (PerkinElmer) was used.
MCF-7 cells were inoculated in a black 384-well plate by adding 45 μL of the cell suspension (containing 200 of MCF-7 cells) to each of the wells. The plate was incubated overnight in a carbon dioxide incubator.
(§4) A duplicate well test was performed. The medium was added to the middle plate in an amount of 49 μL per well. The gradient dilutions of the compounds were transferred in an amount of 1 μL per well to the middle plate at the corresponding positions, and the mixture was mixed and transferred to the cell plate in an amount of 5 μL per well. The cell plate was incubated in a carbon dioxide incubator for 6 days. Promega CellTiter-Glo reagent was added to the cell plate in an amount of 25 μL per well. The cell plate was incubated at room temperature for 10 minutes to stabilize the luminescence signal. EnVision® Multilabel Plate Reader (PerkinElmer) was used for signal detection.

[4] = test system: MDA-MB-436 cells; assay: MDA-MB-436 cell proliferation (CellTiter-Glo); assay type: cell-based; settings: Homo sapiens
Procedure: RPMI 1640 medium, fetal bovine serum, penicillin/streptomycin were purchased from Promega (Madison, Wis.). The MCF-7 cell line and the MDA-MB-436 cell line were purchased from the European Collection of Authenticated Cell Cultures (ECACC). EnVision® Multilabel Plate Reader (PerkinElmer) was used.
as §4, with “The compounds to be tested were diluted three times using Bravo to the tenth concentration, i.e., diluted from 10 μM to 0.508 nM. A” for “A”
The IC50 values were obtained by curve fitting using four parameters (obtained from the 205 mode in XLFIT5, iDBS). Table 1 provides the inhibitory activities of the compounds of the invention against the proliferation of MCF-7 cells and MDA-MB-436 cells.

[5] = test system: human breast cancer cell line MCF-7; assay type: in vivo
Procedure: The in vivo pharmacodynamic study was carried out in human-based tumor cell line-derived xenografted (CDX) BALB/c nude mice, in which were subcutaneously implanted human breast cancer cell line MCF-7.
. All the cages, matts and water were disinfected before use. All the animals had free access to a standard certified commercial laboratory diet. A total of 100 mice were purchased from Shanghai BK Laboratory Animal Co., LTD for study. An estrogen tablet ([…], sustained release within 60 days) was subcutaneously implanted in the left next abdomen of each mice. After 3 days, the tumor cells (10×10^6 in 0.2 mL of phosphate buffer) were subcutaneously implanted in the right next abdomen of each mice for the tumor growth. The administration started when the average tumor volume reached about 150-200 mm^3. The test compounds were orally administered daily, the doses were shown as Table 5. The tumor volumes were measured with a two-dimensional caliper every three days, the volumes were expressed in cubic millimeters and calculated by the formula V=0.5a×b^2, wherein a and b were the major diameter and minor diameter of the tumor, respectively. Antitumor efficacy was determined by dividing an average increase of the tumor volumes of the animals treated with the compounds by an increase of the tumor volumes of the untreated animals.

[6] = molecular target: T3, CDK2/cyclin A (Homo sapiens, UniProt P24941); assay: CDK2/cyclin A Lance Ultra enzyme assay; assay type: biochemical; settings: 25 μM ATP, 60 minutes
T3 construct: purchased Life Technologies
Procedure: as §1, §2
The gradient dilutions of the compounds were dissolved in enzyme buffer, respectively. The components of the buffer included 50 mM hydroxyethylpiperazine ethanesulfonic acid solution (pH 7.5), 1 mM ethylenediaminetetraacetic acid, 10 mM magnesium chloride, 0.01% Brij-35, and 2 mM dithiothreitol. After the reaction started, the OptiPlate 384-well plate was sealed with top heat-sealing film TopSeal-A and incubated at room temperature for 60 minutes. • The Enzyme Reaction System of CDK4/Cyclin D1
as §3

[7] = Study of brain permeability after oral administration; assay type: in vivo, SD rats; settings: for Exposure in brain: 10 mg/kg oral
Procedure: SD rats were used as the test animals.
Twelve healthy 7- to 9-week-old adult male SD rats were purchased from Shanghai Slack Laboratory Animal Co., Ltd. A proper amount of the test compound was weighed to prepare a 0.5% methylcellulose suspension at 1 mg/mL. The rats received a single oral dose of 10 mg/kg. 0.5 h, 2 h, 8 h, and 24 hours after the administration, 3 rats were respectively killed, and their whole blood and brain tissues were collected. The plasma was prepared by centrifuging the whole blood (3000 g, 15 minutes, 4° C.). The samples of brain homogenate were prepared by mixing the brain tissues with a mixture of methanol and a phosphate buffer (methanol:phosphate buffer=1:2) as homogenate at a ratio of 5:1. The drug concentration of each sample was determined by LC/MS/MS, and AUC was calculated to evaluate the exposure.

[8] = test system: Caco-2 monolayer cells; assay: Caco-2 cell bi-directional permeability assessment; settings: Caco-2
Procedure: (§5) The standard experimental conditions were as follows: • Test concentration: 2 μM (DMSO≤1%); • Number of replication: n=2; • Direction: bi-directional transportation, including two directions, i.e., A→B and B→A; • Incubation time: single time point, 2 hours; • Transport buffer: HBSS, pH 7.4; • Incubation conditions: 37° C., 5% CO2.
(§6) After the incubation, sample solutions taken from the dosing wells and the receiving wells were immediately mixed with a cold acetonitrile solution containing the internal standard. Concentrations of the test compounds in all samples (including the initial dosing solutions, the supernatants of the dosing wells and the receiving solutions) were determined by a LC/MS/MS method. The apparent permeability coefficients, the efflux ratios and other parameters were calculated.

[9] = Caco-2 cell bi-directional permeability assessment; settings: human, Caco-2, pH 7.4
Procedure: as §5, §6

T2 sequence (Q00534 whole entry): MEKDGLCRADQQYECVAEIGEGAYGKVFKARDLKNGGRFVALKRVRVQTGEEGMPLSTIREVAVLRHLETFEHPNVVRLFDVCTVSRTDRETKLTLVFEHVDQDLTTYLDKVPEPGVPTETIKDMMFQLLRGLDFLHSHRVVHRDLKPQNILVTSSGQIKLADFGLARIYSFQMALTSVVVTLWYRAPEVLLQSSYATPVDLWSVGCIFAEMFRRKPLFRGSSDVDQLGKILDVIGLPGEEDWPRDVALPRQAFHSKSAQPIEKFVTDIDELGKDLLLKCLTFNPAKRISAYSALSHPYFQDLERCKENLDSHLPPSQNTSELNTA
T2 sequence (P24385 whole entry partner): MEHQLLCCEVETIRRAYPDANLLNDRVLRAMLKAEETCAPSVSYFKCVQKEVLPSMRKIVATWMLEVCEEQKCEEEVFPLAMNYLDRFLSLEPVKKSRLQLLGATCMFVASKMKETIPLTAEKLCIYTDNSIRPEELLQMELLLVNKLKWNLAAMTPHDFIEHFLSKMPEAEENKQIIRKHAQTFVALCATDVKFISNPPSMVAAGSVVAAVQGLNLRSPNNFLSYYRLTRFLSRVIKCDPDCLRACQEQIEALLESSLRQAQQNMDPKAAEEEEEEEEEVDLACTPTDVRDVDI
T1 sequence (P11802 whole entry): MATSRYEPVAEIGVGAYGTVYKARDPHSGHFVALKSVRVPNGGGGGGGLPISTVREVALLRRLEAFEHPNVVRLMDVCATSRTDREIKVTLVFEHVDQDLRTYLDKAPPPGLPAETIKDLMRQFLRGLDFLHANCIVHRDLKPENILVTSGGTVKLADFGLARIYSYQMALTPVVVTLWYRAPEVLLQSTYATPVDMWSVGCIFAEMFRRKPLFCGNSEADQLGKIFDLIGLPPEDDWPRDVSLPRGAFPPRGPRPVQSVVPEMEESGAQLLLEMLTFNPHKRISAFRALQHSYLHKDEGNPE
T1 sequence (P24385 whole entry partner): as the sequence (P24385 whole entry partner) above

| Structure (SMILES) | inhibitory activities against CDK4 compared with the reference compounds [1] | IC50 [2] | inhibitory activities against CDK6 compared with the reference compounds [2] | IC50 [3] | MCF-7/MDA-MB-436 [3] | IC50 [4] | IC50 [1] | IC50 [6] | inhibitory activities against the proliferation of MCF-7 cells compared with the reference compounds [3] | also measured |
| --- | --- | --- | --- | --- | --- | --- | --- | --- | --- | --- |
| CC(C)c1c2cc(-c3nc(Nc4ccc(N5CCNCC5)cn4)ncc3F)ccc2nn1C [Example 3, 5-fluoro-4-(3-isopropyl-2-methyl-2H-indazol-5-yl)-N-(5-(piperazin-1-yl)pyridin-2-yl) pyrimidine-2-amine] | higher inhibitory activities | < 0.0008 µM | higher inhibitory activities | 0.0321 µM | 10.2 | 0.328 µM |  |  |  | Tomor volumes ([5]; 25.0 mg/kg orally daily, 0 day): 187 mm^3; Tomor volumes ([5]; 25.0 mg/kg orally daily, 7th day): 249 mm^3; Tomor volumes ([5]; 25.0 mg/kg orally daily, 14th day): 288 mm^3; Tomor volumes ([5]; 25.0 mg/kg orally daily, 21st day): 432 mm^3; antitumor activities in the CDX model of MCF-7 breast cancer ([5]; in words): significant antitumor activities |
| CC(C)c1c2cc(-c3nc(Nc4ccc(N5CCN(CCN)CC5)cn4)ncc3F)ccc2nn1C [Example 9, N-[5-[4-(2-aminoethyl)piperazin-1-yl]-2-pyridyl]-5-fluoro-4-(3-isopropyl-2-methyl-2H-indazol-5-yl)pyrimidine-2-amine] | higher inhibitory activities | < 0.0008 µM | higher inhibitory activities | 0.045 µM | 14.8 | 0.667 µM | 0.00031 µM | 0.00595 µM | higher inhibitory activities |  |
| CC(C)c1c2cc(-c3nc(Nc4ccc(N5CCN(CCO)CC5)cn4)ncc3F)ccc2nn1C [Example 10, 2-[4-[6-[[5-fluoro-4-(3-isopropyl-2-methyl-2H-indazol-5-yl)pyrimidin-2-yl]amino]-3-pyridyl]piperazin-1-yl]ethanol] | higher inhibitory activities | 0.00097 µM | higher inhibitory activities | 0.0289 µM | 17.2 | 0.496 µM | 0.00088 µM | 0.00662 µM | higher inhibitory activities |  |
| CC(C)c1c2cc(-c3nc(Nc4ccc(C5CCNCC5)cn4)ncc3F)ccc2nn1C [Example 13, 5-fluoro-4-(3-isopropyl-2-methyl-2H-indazol-5-yl)-N-[5-(piperidin-4-yl)-2-pyridyl]pyrimidine-2-amine] |  |  |  |  |  |  |  |  |  | exposure in brain tissue compared with the reference compounds ([7]; rat, versus Palbociclib and LY2835219, in words, b797: 0.5 hour and 2 hour): much higher; Classification Substrates of efflux transporters [8]: not a substrate of an efflux transporter |
| CC(C)c1c2cc(-c3nc(Nc4ccc(N5C[C@@H]6C[C@H]5CN6)cn4)ncc3F)ccc2nn1C [Example 15, N-(5-((1 S,4S)-2,5-diazabicyclo[2.2.1]heptan-2-yl)pyridin-2-yl)-5-fluoro-4-(3-isopropyl-2-methyl-2H-indazol-5-yl)pyrimidine-2-amine] | higher inhibitory activities | < 0.0008 µM | higher inhibitory activities | 0.056 µM | 9.3 | 0.522 µM | < 0.0003 µM | 0.00282 µM | higher inhibitory activities |  |
| CC(C)c1c2c(nn1C)CCN(c1nc(Nc3ccc(C4CCN(C)CC4)cn3)ncc1F)C2 [Example 24] |  | 0.00579 µM |  | 0.265 µM | 12.4 | 3.28 µM | 0.00138 µM | 0.0328 µM |  |  |
| CCN1CCN(Cc2ccc(Nc3ncc(F)c(-c4cc(F)c5nc(C)n(C(C)C)c5c4)n3)nc2)CC1 [LY2835219, Abemaciclib, reference compound] |  |  |  |  | 17.3 | 1.03 µM |  |  |  | Exposure in brain ([7]; time point 0.5 h): 62 nmol/kg; Exposure in brain ([7]; time point 2 h): 525 nmol/kg; Exposure in brain ([7]; time point 8 h): 774 nmol/kg; Tomor volumes ([5]; 50.0 mg/kg orally daily, 0 day): 187 mm^3; Tomor volumes ([5]; 50.0 mg/kg orally daily, 7th day): 261 mm^3; Tomor volumes ([5]; 50.0 mg/kg orally daily, 14th day): 315 mm^3; Tomor volumes ([5]; 50.0 mg/kg orally daily, 21st day): 443 mm^3; Papp A→B at 2 h, 2 μM [9]: 2.69 ×10⁻⁶ cm/s; Papp B→A at 2 h, 2 μM [9]: 6.34 ×10⁻⁶ cm/s; Classification Permeability [8]: High |
